Data: patent US20050014787A1, “5-amidino-2-hydroxybenzenesulfonamide derivatives medicinal compoistions containing the same medicinal use thereof and intermediates in the production thereof” (priority 2001, published 2005)

What was measured:
[1] = target: T1, human thrombin (Homo sapiens, UniProt P00734); experiment: Measurement of inhibitory activity for thrombin (S-2238 chromogenic substrate); type: biochemical; conditions: S-2238 substrate, pH 8.4, 10 minutes at 37° C., absorbance 405 nm
T1 construct: human thrombin (Sigma Chemical Company); purchased Sigma Chemical Company
Experimental: Measurement of inhibitory activity for thrombin
(§1) 2.5 μL of a dimethylsulfoxide solution of a test compound, 187.5 μL of 100 mM tris-200 mM NaCl buffer (pH 8.4) and 50 μL of 1 mM S-2238 (Daiichi Pure Chemicals) aqueous solution were poured into 96 well microplate. Then 10 μL of 2.0 U/mL human thrombin (Sigma Chemical Company) in gelatin-glycine buffer was added and the mixture was incubated for 10 minutes at 37° C. The reaction was terminated with the addition of 50 μL of 60% acetic acid and absorbance (405 nm) was measured by a microplate reader (SPECTRAmax250, Molecular Devices).
(§2) The group with 2.5 μL of the dimethylsulfoxide solution instead of the test compound solution was defined as the control, and the group with 10 μL of the gelatin-glycine buffer solution instead of human thrombin was defined as the blank. The concentration of a test compound that inhibited the absorbance of control by 50% (IC50) was obtained, and this value was used as the index of inhibitory activity for thrombin.

[2] = target: T2, human activated blood coagulation factor X (Homo sapiens, UniProt P00742); experiment: Measurement of inhibitory activity for activated blood coagulation factor X (S-2222 chromogenic substrate); type: biochemical; conditions: S-2222 substrate, pH 8.4, 10 minutes at 37° C., absorbance 405 nm
T2 construct: purchased Calbiochem
T2 sequence (P00742 235-488 limits assumed): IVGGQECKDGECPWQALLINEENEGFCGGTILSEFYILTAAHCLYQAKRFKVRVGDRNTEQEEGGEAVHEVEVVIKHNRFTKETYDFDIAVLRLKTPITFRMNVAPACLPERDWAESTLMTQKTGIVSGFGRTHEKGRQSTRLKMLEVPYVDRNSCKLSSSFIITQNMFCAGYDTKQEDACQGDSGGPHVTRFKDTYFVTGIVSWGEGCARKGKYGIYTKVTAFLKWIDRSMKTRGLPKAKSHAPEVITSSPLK
T2 sequence (P00742 41-179 partner limits assumed): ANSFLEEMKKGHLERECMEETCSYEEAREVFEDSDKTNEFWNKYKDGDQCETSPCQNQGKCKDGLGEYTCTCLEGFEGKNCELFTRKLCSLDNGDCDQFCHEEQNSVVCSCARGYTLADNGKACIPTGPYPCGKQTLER
Experimental: Measurement of inhibitory activity for activated blood coagulation factor X
as §1, with “S-2222” for “S-2238”, “0.6” for “2.0”, “activated blood coagulation factor X (Calbiochem)” for “thrombin (Sigma Chemical Company)”
as §2, with “activated blood coagulation factor X” for “thrombin”, “activated blood coagulation factor X. Results were shown as Table 1.” for “thrombin.”

Row | SMILES | IC50 [1] | IC50 [2]
1 | CC(C)c1ccc(CCN(CC(=O)N2CCOCC2)S(=O)(=O)c2cc(C(=N)N)ccc2O)cc1 [Compound 14, 5-Carbamimidoyl-2-hydroxy-N-[2-(4-isopropylphenyl)ethyl]-N-(2-morpholin-4-yl-2-oxoethyl)benzenesulfonamide] | 27000 nM | 51 nM
2 | CC(C)c1ccc(CCN(C)S(=O)(=O)c2cc(C(=N)N)ccc2O)cc1 [Compound 17, 5-Carbamimidoyl-2-hydroxy-N-[2-(4-isopropylphenyl)ethyl]-N-methylbenzenesulfonamide] | 26000 nM | 160 nM
3 | N=C(N)c1ccc(O)c(S(=O)(=O)NCCc2ccc(-c3ccccc3S(N)(=O)=O)cc2)c1 [Compound 15, 5-Carbamimidoyl-2-hydroxy-N-[2-(2′-sulfamoylbiphenyl-4-yl)-ethyl]benzenesulfnamide] | – | 3.8 nM
